# Assay results as given in article PMC3996874, “Esterase Active in Polar Organic Solvents from the Yeast Pseudozyma sp. NII 08165” (Enzyme Research, 2014).
# Test system: T1, LIP1 esterase
# T1 construct: single band of 175 kDa on SDS-PAGE
# Experiment: pNP release at […] nm, Michaelis-Menten fit (GraphPad Prism)
# Assay type: biochemical, Pseudozyma sp. NII 08165
# Conditions: pH 8, 60 °C; 0.05-0.7 mM pNPP
smiles,measurement,value
CCCCCCCCCCCCCCCC(=O)Oc1ccc([N+](=O)[O-])cc1 [para-nitrophenyl palmitate],Km,10 µM
